Data reported in ChEMBL document CHEMBL4138063, “Discovery of Decamidine as a New and Potent PRMT1 Inhibitor” (Medchemcomm, 2017).
The source made the active and inactive calls. No cut-off for these calls is given here.

Tests used:
[1] = molecular target: T1, Protein arginine N-methyltransferase 5 (Homo sapiens, UniProt O14744); assay: Inhibition of PRMT5 (unknown origin) assessed as reduction in methyl transfer from [3H]-SAM to biotinylated histone H4 peptide H4-20-Biotin at 100 uM pre-incubated for 3 mins before [3H]-SAM addition and measured after 45 mins by scintillation proximity assay
[2] = molecular target: T1, Protein arginine N-methyltransferase 5; assay: Inhibition of PRMT5 (unknown origin) assessed as reduction in methyl transfer from [3H]-SAM to biotinylated histone H4 peptide H4-20-Biotin at 10 uM pre-incubated for 3 mins before [3H]-SAM addition and measured after 45 mins by scintillation proximity assay
[3] = molecular target: T1, Protein arginine N-methyltransferase 5; assay: Inhibition of PRMT5 (unknown origin) assessed as reduction in methyl transfer from [3H]-SAM to biotinylated histone H4 peptide H4-20-Biotin pre-incubated for 3 mins before [3H]-SAM addition and measured after 45 mins by scintillation proximity assay
[4] = molecular target: Protein arginine N-methyltransferase 1 (Homo sapiens, UniProt Q99873); assay: Inhibition of PRMT1 (unknown origin) assessed as reduction in methyl transfer from [3H]-SAM to biotinylated histone H4 peptide H4-20-Biotin at 10 uM pre-incubated for 3 mins before [3H]-SAM addition and measured after 15 mins by scintillation proximity assay
Protein arginine N-methyltransferase 1, sequence (Q99873 whole entry): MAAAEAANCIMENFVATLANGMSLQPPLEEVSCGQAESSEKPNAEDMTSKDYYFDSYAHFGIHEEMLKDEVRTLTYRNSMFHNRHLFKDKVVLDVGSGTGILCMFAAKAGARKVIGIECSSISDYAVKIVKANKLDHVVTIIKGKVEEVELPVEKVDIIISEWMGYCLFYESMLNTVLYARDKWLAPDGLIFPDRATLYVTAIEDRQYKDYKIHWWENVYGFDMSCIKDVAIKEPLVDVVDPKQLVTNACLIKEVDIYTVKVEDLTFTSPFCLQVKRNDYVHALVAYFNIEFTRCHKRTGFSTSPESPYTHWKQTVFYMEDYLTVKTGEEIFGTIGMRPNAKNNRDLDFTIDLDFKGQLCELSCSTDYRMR

T1 sequence (O14744 whole entry): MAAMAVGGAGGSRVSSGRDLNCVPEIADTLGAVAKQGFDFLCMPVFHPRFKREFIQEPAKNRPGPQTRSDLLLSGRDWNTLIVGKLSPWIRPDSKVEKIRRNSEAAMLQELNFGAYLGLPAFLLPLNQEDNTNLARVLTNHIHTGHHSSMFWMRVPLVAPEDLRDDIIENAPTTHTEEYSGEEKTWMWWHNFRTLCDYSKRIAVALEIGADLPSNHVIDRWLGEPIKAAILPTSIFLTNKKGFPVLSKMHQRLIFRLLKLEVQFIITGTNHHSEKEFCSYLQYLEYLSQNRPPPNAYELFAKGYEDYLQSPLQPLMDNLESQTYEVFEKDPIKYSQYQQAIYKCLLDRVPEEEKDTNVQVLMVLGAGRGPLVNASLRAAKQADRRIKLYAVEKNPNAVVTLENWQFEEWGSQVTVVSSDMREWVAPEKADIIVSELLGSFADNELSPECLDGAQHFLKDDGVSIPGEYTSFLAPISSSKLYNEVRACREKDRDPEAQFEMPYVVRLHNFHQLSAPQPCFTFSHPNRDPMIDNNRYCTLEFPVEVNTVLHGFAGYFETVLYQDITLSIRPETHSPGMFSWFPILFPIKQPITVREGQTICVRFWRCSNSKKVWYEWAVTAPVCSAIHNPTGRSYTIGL

| SMILES | inhibition [1] | inhibition [2] | IC50 [3] | IC50 [4] |
| --- | --- | --- | --- | --- |
| N=C(N)c1ccc(OCOc2ccc(C(=N)N)cc2)cc1 | 50% | – | – | – |
| N=C(N)c1ccc(OC/C=C/COc2ccc(C(=N)N)cc2)cc1 | inactive | inactive | – | – |
| CC(CCCOc1ccc(C(=N)N)cc1)Oc1ccc(C(=N)N)cc1 (configuration not stated) | inactive | inactive | – | – |
| N=C(N)c1ccc(OCCCCOc2ccc(C(=N)N)cc2)cc1 | inactive | inactive | – | – |
| N=C(N)c1ccc(OCCCOc2ccc(C(=N)N)cc2)cc1 | inactive | inactive | – | – |
| N=C(N)c1ccc(OCCOc2ccc(C(=N)N)cc2)cc1 | inactive | inactive | – | – |
| N=C(N)c1ccc(OCCCCCCOc2ccc(C(=N)N)cc2)cc1 [HEXAMIDINE] | inactive | inactive | 357 µM | – |
| N=C(N)c1ccc(Oc2ccc(C(=N)N)cc2)cc1 | inactive | inactive | – | – |
| N=C(N)c1ccc(-c2ccc(-c3ccc(C(=N)N)cc3)o2)cc1 [FURAMIDINE] | 50% | – | 256 µM | 22 µM |
| N=C(N)c1ccc(/C=C/c2ccc(C(=N)N)cc2)cc1 [STILBAMIDINE] | – | – | 712 µM | – |
| N=C(N)c1ccc(OCCCCCCCCCCOc2ccc(C(=N)N)cc2)cc1 | 50% | – | 43 µM | – |
